The target of the first assay is T1, Dopamine beta-hydroxylase (Bos taurus) (UniProt P15101).
T1 sequence (whole entry): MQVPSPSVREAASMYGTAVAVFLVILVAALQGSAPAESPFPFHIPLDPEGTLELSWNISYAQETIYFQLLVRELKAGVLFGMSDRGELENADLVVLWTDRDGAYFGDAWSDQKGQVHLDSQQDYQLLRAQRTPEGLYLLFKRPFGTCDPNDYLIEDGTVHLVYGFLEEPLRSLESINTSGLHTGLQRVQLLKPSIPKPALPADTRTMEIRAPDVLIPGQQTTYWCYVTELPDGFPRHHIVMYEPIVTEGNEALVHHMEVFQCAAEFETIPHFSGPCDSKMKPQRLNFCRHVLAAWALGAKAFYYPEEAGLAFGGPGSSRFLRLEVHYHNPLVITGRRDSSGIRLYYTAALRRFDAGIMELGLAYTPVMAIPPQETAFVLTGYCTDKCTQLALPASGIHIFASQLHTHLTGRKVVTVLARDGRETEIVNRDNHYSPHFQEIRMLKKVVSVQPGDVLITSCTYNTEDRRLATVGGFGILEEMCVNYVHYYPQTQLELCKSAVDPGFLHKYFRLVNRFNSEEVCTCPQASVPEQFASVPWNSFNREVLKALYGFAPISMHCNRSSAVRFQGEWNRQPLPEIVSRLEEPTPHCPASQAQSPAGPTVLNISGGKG
In words: Percent inhibition against bovine dopamine beta-hydroxylase (DBH) at 10e-4 M concentration.
Take `OCc1nccn1Cc1ccccc1`: the inhibition was 0%.
Still for that read-out and setting: then `O=C(O)Cc1nccn1Cc1ccc(O)cc1`, with 0%; and `Nc1nccn1Cc1ccc(O)cc1`, with 4%; and `O/N=C/c1nccn1Cc1ccccc1`, with 10%.
Consider `O=C(O)Cc1nccn1Cc1ccccc1`, for which the inhibition turned out to be 0%.
The molecule `Oc1ccc(Cn2ccnc2)cc1` had an inhibition of 17%.

The target in another assay is T2, Dopamine beta-hydroxylase (Bos taurus, UniProt P15101).
T2 sequence (P15101 whole entry): T1 sequence (whole entry)
The assay can be described thus: Inhibitory activity was determined against bovine dopamine beta-hydroxylase (DBH).
`Fc1cccc(Cn2ncnc2S)c1` gave a half-inhibitory concentration (IC50) of 15 µM.
Still for that read-out and setting: next, `Oc1c(F)cc(Cn2cnnc2S)cc1F`: 0.035 µM; `Fc1cccc(Cn2cnnc2S)c1`: 1.9 µM; `CSc1nccn1CCCc1ccc(O)cc1`: 79 µM.
On the same count and under the same terms, next, `Fc1cc(F)cc(Cc2cccnc2S)c1`: 13.4 µM; `Sc1ncnn1Cc1ccccc1`: 75 µM.
Still for that read-out and setting: next, `Fc1cc(F)cc(Cn2cccnc2=S)c1`: 2.8 µM.
`Fc1cc(F)cc(CN2CCN=C2S)c1`: the midpoint of inhibition, the IC50, lay at 1.4 µM.
Still for that read-out and setting: next, `O=C(O)c1nccn1Cc1ccccc1`: 57 µM; `Fc1cccc(CN2CCNC2=S)c1`: 3.7 µM; `Fc1cc(F)cc(Cn2nc[nH]c2=S)c1`: 6.2 µM.
As for `NCc1nccn1Cc1ccc(O)cc1`, the IC50 is 165 µM.
Molecule `Fc1cc(F)cc(Cn2nnnc2S)c1` gave a 50% inhibitory concentration (IC50) of 1.54 µM. Against the preceding molecule, the IC50 is about 110-fold lower.
On the same count and under the same terms, then `O=C(O)c1nccn1Cc1ccc(O)cc1`, with 112 µM; and `Sc1nnnn1Cc1ccccc1`, with 16 µM.

Another assay concerns the target T1, Dopamine beta-hydroxylase (Bos taurus). In words: Percent inhibition against bovine dopamine beta-hydroxylase (DBH) at 10e-5 M concentration.
For the molecule `S=c1ncccn1Cc1ccccc1`, the inhibition turned out to be 5%.
The same measure, in the same setting: then `S=C1NCCN1Cc1ccccc1`, with 5%; and `Sc1ncccc1Cc1ccccc1`, with 26%.
On the same count and under the same terms, next, `Sc1cnnn1Cc1ccccc1`: 0%; `Fc1cccc(Cc2cccnc2S)c1`: 34%.
`Fc1cccc(Cn2cccnc2=S)c1` returned an inhibition of 15%.

What is called inhibition is how much of the control response was suppressed. Higher therefore signals a response far below the control. By IC50 is commonly meant the midpoint of a concentration-inhibition curve. Low values mean inhibition by little substance, high ones a need for much substance.

Values taken from ChEMBL document CHEMBL1124701, “Some benzyl-substituted imidazoles, triazoles, tetrazoles, pyridinethiones, and structural relatives as multisubstrate inhibitors of dopamine beta-hydroxylase. 4. Structure-activity relationships at the copper binding site” (J Med Chem, 1990).
